According to patent publication US20160122320A1, “USEFUL COMBINATIONS OF MONOBACTAM ANTIBIOTICS WITH BETA-LACTAMASE INHIBITORS” (Basilea Pharmaceutica AG, priority 2005, published 2016):
Structures can show the parent of a compound that is named as a salt.

Tests used:
Experiment in all cases: MIC, NCCLS broth microdilution
Assay type in all cases: cell-based
Acinetobacter sp. J2 = conditions: for MIC of antibiotic / MIC of antibiotic at fixed inhibitor concentration of 4 mg/L: Acinetobacter baumannii J2; for MIC of antibiotic: antibiotic alone, no inhibitor; for MIC of antibiotic at fixed inhibitor concentration (4 mg/L): Acinetobacter sp. J2, MIC of antibiotic compound 1 with the labelled bridged monobactam of formula II and clavulanate, 4 mg/L each
[1] = test system: Stenotrophomonas malthophilia 1AC736; conditions: for MIC of antibiotic / MIC of antibiotic at fixed inhibitor concentration of 4 mg/L: Stenotrophomonas maltophilia 1AC736; for MIC of antibiotic: antibiotic alone, no inhibitor; for MIC of antibiotic at fixed inhibitor concentration (4 mg/L): Stenotrophomonas malthophilia 1AC736, MIC of antibiotic compound 1 with the labelled bridged monobactam of formula II and clavulanate, 4 mg/L each
[2] = test system: Pseudomonas aeruginosa MK1184; conditions: for MIC of antibiotic: antibiotic alone, no inhibitor; for MIC of antibiotic at fixed inhibitor concentration (4 mg/L): MIC of antibiotic compound 1 with the labelled bridged monobactam of formula II and clavulanate, 4 mg/L each
[3] = test system: Pseudomonas aeruginosa 1973E; conditions: for MIC of antibiotic: antibiotic alone, no inhibitor; for MIC of antibiotic at fixed inhibitor concentration (4 mg/L): MIC of antibiotic compound 1 with the labelled bridged monobactam of formula II and clavulanate, 4 mg/L each
Summary of the method: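 Growth inhibition read by eye after overnight incubation (30° C. or 37° C.) defines the MIC, using NCCLS M7-A5 broth microdilution with ≤1% DMSO. When combinations were tested, only the formula I compound was titrated and each partner was fixed at 4 μg/mL.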

Enterobacter cloacae P99 = conditions: for MIC of antibiotic: antibiotic alone, no inhibitor; for MIC of antibiotic at fixed inhibitor concentration (4 mg/L): MIC of antibiotic compound 1 with the labelled bridged monobactam of formula II and clavulanate, 4 mg/L each
Serratia marcescens S6 = conditions: for MIC of antibiotic: antibiotic alone, no inhibitor; for MIC of antibiotic at fixed inhibitor concentration (4 mg/L): MIC of antibiotic compound 1 with the labelled bridged monobactam of formula II and clavulanate, 4 mg/L each
[4] = test system: Klebsiella pneumoniae CF104; conditions: for MIC of antibiotic: antibiotic alone, no inhibitor; for MIC of antibiotic at fixed inhibitor concentration (4 mg/L): MIC of antibiotic compound 1 with the labelled bridged monobactam of formula II and clavulanate, 4 mg/L each

| SMILES | MIC of antibiotic (Acinetobacter sp. J2) | MIC of antibiotic at fixed inhibitor concentration of 4 mg/L (Acinetobacter sp. J2; with 102 and clavulanate) | MIC of antibiotic [1] | MIC of antibiotic at fixed inhibitor concentration of 4 mg/L ([1]; with 102 and clavulanate) | MIC of antibiotic [2] | MIC of antibiotic at fixed inhibitor concentration of 4 mg/L ([2]; with 102 and clavulanate) | MIC of antibiotic [3] | MIC of antibiotic at fixed inhibitor concentration of 4 mg/L ([3]; with 102 and clavulanate) | MIC of antibiotic (Enterobacter cloacae P99) | MIC of antibiotic at fixed inhibitor concentration of 4 mg/L (Enterobacter cloacae P99; with 102 and clavulanate) | MIC of antibiotic (Serratia marcescens S6) | MIC of antibiotic at fixed inhibitor concentration of 4 mg/L (Serratia marcescens S6; with 102 and clavulanate) | MIC of antibiotic [4] | MIC of antibiotic at fixed inhibitor concentration (4 mg/L) (Acinetobacter sp. J2) | MIC of antibiotic at fixed inhibitor concentration (4 mg/L) [1] | MIC of antibiotic at fixed inhibitor concentration (4 mg/L) [2] | MIC of antibiotic at fixed inhibitor concentration (4 mg/L) [3] | MIC of antibiotic at fixed inhibitor concentration (4 mg/L) (Enterobacter cloacae P99) | MIC of antibiotic at fixed inhibitor concentration (4 mg/L) (Serratia marcescens S6) | MIC of antibiotic at fixed inhibitor concentration (4 mg/L) [4] | other results |
| --- | --- | --- | --- | --- | --- | --- | --- | --- | --- | --- | --- | --- | --- | --- | --- | --- | --- | --- | --- | --- | --- |
| COn1cc(O)c(=O)cc1CON=C(C(=O)N[C@@H]1C(=O)N(S(=O)(=O)O)[C@H]1C)c1csc(N)n1 [Compound 5, (3S,4S)-3-{2-(2-amino(1,3-thiazol-4-yl))-3-[(5-hydroxy-1-methoxy-4-oxo(2-hydropyridyl))methoxy]-3-azaprop-2-enoylamino}-4-methyl-2-oxoazetidinesulfonic acid] | >32 mg/L | 32 mg/L | 16 mg/L | 4 mg/L | >32 mg/L | >32 mg/L | >32 mg/L | >32 mg/L | 32 mg/L | 8 mg/L | 8 mg/L | 1 mg/L | >32 mg/L |  |  |  |  |  |  |  | MIC of antibiotic at fixed inhibitor concentration of 4 mg/L ([4]; with 102 and clavulanate): 8 mg/L |
| CC1(C)S[C@@H]2[C@H](NC(=O)[C@H](N)c3ccccc3)C(=O)N2[C@H]1C(=O)O [Ampicillin, ampicillin, reference compound] |  |  |  |  |  |  |  |  |  |  |  |  |  |  |  |  |  |  |  |  | MIC of antibiotic at fixed inhibitor concentration of 4 mg/L (Acinetobacter sp. J2; with sulbactam): 32 mg/L; MIC of antibiotic at fixed inhibitor concentration of 4 mg/L ([1]; with sulbactam): 32 mg/L; MIC of antibiotic at fixed inhibitor concentration of 4 mg/L ([2]; with sulbactam): >32 mg/L; MIC of antibiotic at fixed inhibitor concentration of 4 mg/L ([3]; with sulbactam): >32 mg/L; MIC of antibiotic at fixed inhibitor concentration of 4 mg/L (Enterobacter cloacae P99; with sulbactam): >32 mg/L; MIC of antibiotic at fixed inhibitor concentration of 4 mg/L (Serratia marcescens S6; with sulbactam): >32 mg/L; MIC of antibiotic at fixed inhibitor concentration of 4 mg/L ([4]; with sulbactam): >32 mg/L |
| NC(=O)OCC1C(NC(=O)C(=NOCc2cc(=O)c(O)cn2O)c2csc(N)n2)C(=O)N1OS(=O)(=O)O (stereo not drawn) [Compound 25] | >32 mg/L | 16 mg/L | 4 mg/L | 1 mg/L | >32 mg/L | 4 mg/L | 16 mg/L | 4 mg/L | >32 mg/L | 8 mg/L | 1 mg/L | 1 mg/L | >32 mg/L |  |  |  |  |  |  |  | MIC of antibiotic at fixed inhibitor concentration of 4 mg/L (Acinetobacter sp. J2; with 324 and clavulanate): >32 mg/L; MIC of antibiotic at fixed inhibitor concentration of 4 mg/L ([1]; with 324 and clavulanate): 1 mg/L; MIC of antibiotic at fixed inhibitor concentration of 4 mg/L ([2]; with 324 and clavulanate): 8 mg/L; MIC of antibiotic at fixed inhibitor concentration of 4 mg/L ([3]; with 324 and clavulanate): 8 mg/L; MIC of antibiotic at fixed inhibitor concentration of 4 mg/L (Enterobacter cloacae P99; with 324 and clavulanate): 4 mg/L; MIC of antibiotic at fixed inhibitor concentration of 4 mg/L (Serratia marcescens S6; with 324 and clavulanate): 1 mg/L; MIC of antibiotic at fixed inhibitor concentration of 4 mg/L ([4]; with 102 and clavulanate): 0.5 mg/L; MIC of antibiotic at fixed inhibitor concentration of 4 mg/L ([4]; with 324 and clavulanate): 0.5 mg/L |

Further lines, with some results ahead:

| MIC of antibiotic (Acinetobacter sp. J2) | MIC of antibiotic at fixed inhibitor concentration of 4 mg/L (Acinetobacter sp. J2; with 102 and clavulanate) | MIC of antibiotic [1] | MIC of antibiotic at fixed inhibitor concentration of 4 mg/L ([1]; with 102 and clavulanate) | MIC of antibiotic [2] | MIC of antibiotic at fixed inhibitor concentration of 4 mg/L ([2]; with 102 and clavulanate) | MIC of antibiotic [3] | MIC of antibiotic at fixed inhibitor concentration of 4 mg/L ([3]; with 102 and clavulanate) | MIC of antibiotic (Enterobacter cloacae P99) | MIC of antibiotic at fixed inhibitor concentration of 4 mg/L (Enterobacter cloacae P99; with 102 and clavulanate) | MIC of antibiotic (Serratia marcescens S6) | MIC of antibiotic at fixed inhibitor concentration of 4 mg/L (Serratia marcescens S6; with 102 and clavulanate) | MIC of antibiotic [4] | MIC of antibiotic at fixed inhibitor concentration (4 mg/L) (Acinetobacter sp. J2) | MIC of antibiotic at fixed inhibitor concentration (4 mg/L) [1] | MIC of antibiotic at fixed inhibitor concentration (4 mg/L) [2] | MIC of antibiotic at fixed inhibitor concentration (4 mg/L) [3] | MIC of antibiotic at fixed inhibitor concentration (4 mg/L) (Enterobacter cloacae P99) | MIC of antibiotic at fixed inhibitor concentration (4 mg/L) (Serratia marcescens S6) | MIC of antibiotic at fixed inhibitor concentration (4 mg/L) [4] | SMILES | other results |
| --- | --- | --- | --- | --- | --- | --- | --- | --- | --- | --- | --- | --- | --- | --- | --- | --- | --- | --- | --- | --- | --- |
|  |  |  |  |  |  |  |  |  |  |  |  |  | >32 mg/L | 0.25 mg/L | >32 mg/L | 4 mg/L | 4 mg/L | 0.25 mg/L | 4 mg/L | NC(=O)c1cccc(NC(=O)N2CC[C@@H]3[C@H]2C(=O)N3S(=O)(=O)[O-])c1.[Na+] [Compound 305] |  |
|  |  |  |  |  |  |  |  |  |  |  |  |  | 8 mg/L | 0.125 mg/L | 8 mg/L | 4 mg/L | 32 mg/L | 0.125 mg/L | 1 mg/L | Nc1ccc[n+](CC(=O)N2CC[C@@H]3[C@H]2C(=O)N3S(=O)(=O)[O-])c1 [Compound 107, (1S,5R)-2-[2-(3-aminopyridinium)acetyl]-7-oxo-2,6-diazabicyclo[3.2.0]heptane-6-sulfonate, inner salt] |  |
|  |  |  |  |  |  |  |  |  |  |  |  |  | 4 mg/L | 0.125 mg/L | >32 mg/L | 4 mg/L | 8 mg/L | 4 mg/L | 0.25 mg/L | Cn1nnnc1SCC(=O)N1CC[C@@H]2[C@H]1C(=O)N2S(=O)(=O)[O-].[Na+] [Compound 206] |  |
